From ChEMBL document CHEMBL2429731, “Using genetic methods to define the targets of compounds with antimalarial activity” (J Med Chem, 2013)

Experiments:
Plasmodium yoelii = assay: Antimalarial activity against sporozoite stage of Plasmodium yoelii assessed as invasion of human HepG2 cells expressing CD81 incubated for 2 hrs prior to inoculation measured after 1 hr by immunofluorescence assay in presence of penicillin/streptomycin; format: functional, organism-based
Plasmodium berghei = assay: Antimalarial activity against gametocytic stage of Plasmodium berghei infected in blood assessed as inhibition of ookinete formation at 10 uM after 24 hrs by Giemsa staining-based microscopic analysis relative to control; format: functional

| SMILES | IC50 (Plasmodium yoelii) [nM] | inhibition at 10 µM (Plasmodium berghei) [%] |
| --- | --- | --- |
| COc1cc(N[C@H](C)CCCN)c2nccc(C)c2c1Oc1ccc(Cl)c(Cl)c1 | < 1000 | – |
| CCc1nc(N)nc(N)c1OCCCOc1ccccc1CCC(=O)O | < 1000 | – |
| CO[C@H]1O[C@@H]2O[C@@]3(C)CC[C@H]4[C@H](C)CC[C@@H]([C@H]1C)[C@@]24OO3 [ARTEMETHER] | < 1000 | – |
| C[C@H]1[C@@H](O)O[C@@H]2O[C@@]3(C)CC[C@H]4[C@H](C)CC[C@@H]1[C@@]24OO3 [ARTENIMOL] | < 1000 | – |
| C[C@H]1[C@H](OC(=O)CCC(=O)O)O[C@@H]2O[C@@]3(C)CC[C@H]4[C@H](C)CC[C@@H]1[C@@]24OO3 [ARTESUNATE] | < 1000 | – |
| O=C1C(O)=C([C@H]2CC[C@H](c3ccc(Cl)cc3)CC2)C(=O)c2ccccc21 [ATOVAQUONE] | < 1000 | < 50 |
| CN(C)c1ccc2nc3ccc(N(C)C)cc3[s+]c2c1 [METHYLENE BLUE ANHYDROUS] | < 1000 | < 50 |
| COc1cc(NC(C)CCCN)c2ncccc2c1 (configuration not stated) [PRIMAQUINE] | < 1000 | < 50 |
| CCc1nc(N)nc(N)c1-c1ccc(Cl)cc1 [PYRIMETHAMINE] | < 1000 | < 50 |
| COc1ccc2nc3cc(Cl)ccc3c(Nc3cc(CN4CCCC4)c(O)c(CN4CCCC4)c3)c2n1 [PYRONARIDINE] | < 1000 | < 50 |
| C=C[C@H]1CN2CC[C@H]1C[C@H]2[C@H](O)c1ccnc2ccc(OC)cc12 [QUININE] | – | < 50 |
| COc1cc(C)c2c(Oc3cccc(C(F)(F)F)c3)c(OC)cc(NC(C)CCCN)c2n1 (configuration not stated) [TAFENOQUINE] | < 1000 | – |
